Where “and” joins values, the source holds several entries; their conditions need not be identical. Equal values may be shown once.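 Five concentrations, 48 hours, 96-well plates. GI50 is the concentration that inhibits growth by half.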 Calls of active or inactive are those of the source. No stated cut-off is given here; in the data, active = GI50 up to about 1.1 µM and inactive = higher.
Columns and labels:
Test in all cases: growth of human tumour cells (NCI), 48 h
A498 = system: A498
A549 = system: A549
EKVX = system: EKVX
HCT-116 = system: HCT-116
HL-60 = system: HL-60
K562 = system: K562
MCF7 = system: MCF7
MOLT-4 = system: MOLT-4
Malme-3M = system: Malme-3M
NCI-H226 = system: NCI-H226
NCI-H23 = system: NCI-H23
NCI/ADR-RES = system: NCI/ADR-RES
OVCAR-4 = system: OVCAR-4
PC-3 = system: PC-3
RPMI-8226 = system: RPMI-8226
SF-268 = system: SF-268
SK-MEL-28 = system: SK-MEL-28
SK-OV-3 = system: SK-OV-3
SN12C = system: SN12C
T47D = system: T47D

| SMILES | GI50 (A498) | GI50 (A549) | GI50 (EKVX) | GI50 (HCT-116) | GI50 (HL-60) | GI50 (K562) | GI50 (MCF7) | GI50 (MOLT-4) | GI50 (Malme-3M) | GI50 (NCI-H226) | GI50 (NCI-H23) | GI50 (NCI/ADR-RES) | GI50 (OVCAR-4) | GI50 (PC-3) | GI50 (RPMI-8226) | GI50 (SF-268) | GI50 (SK-MEL-28) | GI50 (SK-OV-3) | GI50 (SN12C) | GI50 (T47D) |
| --- | --- | --- | --- | --- | --- | --- | --- | --- | --- | --- | --- | --- | --- | --- | --- | --- | --- | --- | --- | --- |
| C=C1c2nc3ccccc3n2C=C(c2ccc(C)cc2)N1c1ccc(OC)cc1 | > 72.9 µM (inactive) | 47.5 µM (inactive) | 32.5 µM (inactive) | 19.5 µM (inactive) | 8.34 µM (inactive) | 6.41 µM (inactive) | 15.3 µM (inactive) | 15.2 µM (inactive) | 21.8 µM (inactive) | 27.9 µM (inactive) | > 73.6 µM (inactive) | 14.9 µM (inactive) | > 94.2 µM (inactive) | 16.4 µM (inactive) | 13 µM (inactive) | > 100 µM (inactive) | > 70.5 µM (inactive) | > 100 µM (inactive) | > 94.4 µM (inactive) | 26.2 µM (inactive) |
| O=c1ccn(C2OC(CN(O)CCC3C(CO)OC(n4ccc(=O)[nH]c4=O)C3O)C(O)C2O)c(=O)[nH]1 (stereo not given) | > 100 µM (inactive) | > 100 µM (inactive) | > 100 µM (inactive) | > 100 µM (inactive) | > 100 µM (inactive) | > 100 µM (inactive) | > 100 µM (inactive) | > 100 µM (inactive) | > 100 µM (inactive) | > 100 µM (inactive) | > 100 µM (inactive) | > 100 µM (inactive) | > 100 µM (inactive) | > 100 µM (inactive) | > 100 µM (inactive) | > 100 µM (inactive) | > 100 µM (inactive) | > 100 µM (inactive) | > 100 µM (inactive) | > 100 µM (inactive) |
| C/C(=N\NC(=S)N1CCOCC1)c1nc2cccnc2[nH]1 | > 100 µM (inactive) | 30.7 µM (inactive) | 19.5 µM (inactive) | 27.8 µM (inactive) | 24.5 µM (inactive) | 51.9 µM (inactive) | 30.5 µM (inactive) | 32.2 µM (inactive) | > 100 µM (inactive) | 38.5 µM (inactive) | 35.2 µM (inactive) | 80.5 µM (inactive) | 13.7 µM (inactive) | 27.9 µM (inactive) | 42.6 µM (inactive) | 24.8 µM (inactive) | 74.1 µM (inactive) | 36.6 µM (inactive) | 74 µM (inactive) | 29.4 µM (inactive) |
| COC(=O)C(CBr)CBr | 16.8 µM (inactive) | 18.2 µM (inactive) | 9.55 µM (inactive) | 2.96 µM (inactive) | 0.253 µM (active) | 1.57 µM (inactive) | 4.46 µM (inactive) | 1.69 µM (inactive) | 2.2 µM (inactive) | 13.3 µM (inactive) | 6.78 µM (inactive) | 3.1 µM (inactive) | 4.03 µM (inactive) | 10.2 µM (inactive) | 0.757 µM (active) | 15.1 µM (inactive) | 3.77 µM (inactive) | 18.8 µM (inactive) | 3.9 µM (inactive) | 2.5 µM (inactive) |
| COc1ccc(/C=C2/N/C(=N\N=C/C(O)C(O)C(O)C(O)CO)NC2=O)cc1 (stereo not given) | > 100 µM (inactive) | > 100 µM (inactive) | > 100 µM (inactive) | > 100 µM (inactive) | 33 µM (inactive) | 53.8 µM (inactive) and 78 µM (inactive) | 40.1 µM (inactive) | > 10 µM (inactive) | > 100 µM (inactive) | > 100 µM (inactive) | > 100 µM (inactive) | > 100 µM (inactive) | 39.9 µM (inactive) and 39.4 µM (inactive) | > 100 µM (inactive) | > 100 µM (inactive) | > 100 µM (inactive) | > 100 µM (inactive) | > 100 µM (inactive) | > 100 µM (inactive) | 62.1 µM (inactive) |
| COc1ccc(/N=C(Nc2ccc(OC)cc2)/C(=N/c2ccc(OC)cc2)Nc2ccc(OC)cc2)cc1 | > 100 µM (inactive) | 96.2 µM (inactive) | > 100 µM (inactive) | > 100 µM (inactive) | 14.1 µM (inactive) | 15 µM (inactive) | > 100 µM (inactive) | 4.25 µM (inactive) | > 100 µM (inactive) | > 100 µM (inactive) | > 100 µM (inactive) | > 100 µM (inactive) | > 100 µM (inactive) | 3.9 µM (inactive) | 5.66 µM (inactive) | > 100 µM (inactive) | > 100 µM (inactive) | > 100 µM (inactive) | > 100 µM (inactive) | > 100 µM (inactive) |
| O=[N+]([O-])/C(Cl)=C(\NCCO)C(Cl)=C(Cl)Cl | > 100 µM (inactive) | > 100 µM (inactive) | > 100 µM (inactive) | 45.2 µM (inactive) | 4.35 µM (inactive) | 8.2 µM (inactive) | 52 µM (inactive) | 20.7 µM (inactive) | 32.5 µM (inactive) | > 100 µM (inactive) | 72.1 µM (inactive) | 61.1 µM (inactive) | 59.4 µM (inactive) | 87.3 µM (inactive) | 16.1 µM (inactive) | 87.9 µM (inactive) | > 85.7 µM (inactive) | > 100 µM (inactive) | 43 µM (inactive) | 57.7 µM (inactive) |
| C=CCOC(=O)C1C2OC3(C(C(=O)OC)=C2C(=O)OC)c2ccccc2CCC13 (stereo not given) | > 10 µM (inactive) | > 10 µM (inactive) | > 10 µM (inactive) | > 10 µM (inactive) | > 10 µM (inactive) | > 10 µM (inactive) | > 10 µM (inactive) | > 10 µM (inactive) | > 10 µM (inactive) | > 10 µM (inactive) | > 10 µM (inactive) | > 10 µM (inactive) | > 10 µM (inactive) | > 10 µM (inactive) | > 10 µM (inactive) | > 10 µM (inactive) | > 10 µM (inactive) | > 10 µM (inactive) | > 10 µM (inactive) | > 10 µM (inactive) |
| C=C(C)[C@@H]1CC[C@]2(C)CC[C@]3(C)[C@H](CC[C@@H]4[C@@]5(C)CC[C@H](OC(=O)c6ccccc6)C(C)(C)[C@@H]5CC[C@]43C)[C@@H]12 | > 100 µM (inactive) | > 100 µM (inactive) | > 100 µM (inactive) | > 100 µM (inactive) | > 100 µM (inactive) | > 100 µM (inactive) | > 100 µM (inactive) | > 100 µM (inactive) | > 100 µM (inactive) | > 100 µM (inactive) | > 100 µM (inactive) | > 100 µM (inactive) | > 100 µM (inactive) | > 100 µM (inactive) | > 100 µM (inactive) | > 100 µM (inactive) | > 100 µM (inactive) | > 100 µM (inactive) | > 100 µM (inactive) | > 100 µM (inactive) |
| N#CC(C#N)=C(N)/C(C#N)=C/c1cc(O)c(O)c(Br)c1 | > 100 µM (inactive) | 59.4 µM (inactive) | 52.8 µM (inactive) | 37.8 µM (inactive) | 28.1 µM (inactive) | 46.6 µM (inactive) | 49.4 µM (inactive) | 36.2 µM (inactive) | 85.7 µM (inactive) | 21.1 µM (inactive) | > 100 µM (inactive) | 36.4 µM (inactive) | 38.6 µM (inactive) | 92.5 µM (inactive) | > 100 µM (inactive) | > 62.5 µM (inactive) | > 100 µM (inactive) | > 93.1 µM (inactive) | > 69.3 µM (inactive) | 32.7 µM (inactive) |
